Literature values as cited in patent US20200237920A1, “STABLE INJECTABLE PHARMACEUTICAL COMPOSITION OF NEUROKININ 1 RECEPTOR ANTAGONIST AND PROCESS FOR PREPARATION THEREOF” (PHARMATHEN S.A., priority 2012, published 2020).

Assays:
[1] = test system: serotonin, dopamine or corticosteroid receptors

| Structure (SMILES) | affinity for serotonin, dopamine or corticosteroid receptors (in words) [1] | solubility in water (in words) |
| --- | --- | --- |
| C[C@@H](O[C@H]1OCCN(Cc2n[nH]c(=O)[nH]2)[C@H]1c1ccc(F)cc1)c1cc(C(F)(F)F)cc(C(F)(F)F)c1 [Aprepitant] | little or no affinity |  |
| CNC[C@H](O)[C@@H](O)[C@H](O)[C@H](O)CO.CNC[C@H](O)[C@@H](O)[C@H](O)[C@H](O)CO.C[C@@H](O[C@H]1OCCN(Cc2nn(P(=O)(O)O)c(=O)[nH]2)[C@H]1c1ccc(F)cc1)c1cc(C(F)(F)F)cc(C(F)(F)F)c1 [Fosaprepitant Dimeglumine] |  | freely soluble in water |
